These results are taken from article PMC5335257, “Promoting in vivo remyelination with small molecules: a neuroreparative pharmacological treatment for Multiple Sclerosis” (Scientific Reports, 2017).

The test system of one assay is adult human OPCs. The assay is described as follows: Differentiation assay, adult human OPCs. The format is cell-based. Here is the method:
Human brain samples were obtained from adult patients of temporal lobe epilepsy resistant to pharmacological treatment or traumatic brain injury; they underwent surgical treatment by the Neurosurgery Service at the Hospital Universitario de La Princesa (Madrid, Spain) and Hospital 12 de Octubre (Madrid, Spain). All tissue samples were obtained under protocols approved by the Research Ethics Committee of Toledo (Spain) review boards. All were conducted in accordance with the Helsinki Declaration and were approved by the Research Ethics Committee of Toledo (Spain). All patients provided informed consent prepared under the guidelines of the Research Ethics Committee at their respective hospital in Madrid (Spain).
For cells obtained from human biopsies, the same protocol was used except that papain solution was used 1:2.5 in HBSS for 10 minutes for meningeal disintegration and 1:10 in HBSS for 15 minutes for the tissue digestion, 25 cm[2] flasks were used, the medium was supplemented with 10 ng/ml of human PDGF-AA (Millipore) for 2 weeks and then incubated for 2 more weeks without growth factors before shaking and the shaking was carried out at 230 rpm instead of 250 rpm.
Purified OPCs were placed on coverslips coated with poly-L-lysine and laminin in 24-well tissue culture dishes at a density of 2 × 10^4 cells/well. To promote differentiation, the cells were maintained in the differentiation medium (described above) and PDE7-GSK3 or GSK3 inhibitors (VP3.15 or TDZD8; 1 μM) were added to the culture medium. Different controls were used for the dual or single inhibitors due to the active substance being dissolved in differing amounts of DMSO. After 5, 7 and 10 DIV the cells were fixed with 4% PFA for further immunocytochemical analysis. Anti-CNPase antibodies (1:200;Covance; Cat#SMI-91R), anti-MBP antibodies (1:200; Serotec; Cat#MCA4095) for detecting oligodendrocytes and anti-Olig2 antibodies (1:250; Millipore; Cat#AB9610) as a marker for all oligodendroglial stages were used. Ten random fluorescence digital images were taken in each coverslip with a DFC480 FX digital camera (Leica) coupled to a Leica DM5000 B microscope for quantification. Data were expressed as a mean ratio of differentiated oligodendrocytes (CNPase^+-Olig2^+ double positive cells) with respect to total Olig2^+ cells ± SEM or percentage of CNPase^+ cells respect to control ± SEM, in at least three independent experiments, except with human samples (two independent experiments).

Assay [1] has as its system corpus callosum of cuprizone-fed mice. The assay can be described thus: In vivo remyelination, cuprizone demyelination model. On the set-up: species or system C57/BL6 male mice. How it is done:
The protocol used was modified from previously described. Demyelination was induced by feeding 8 weeks old male C57/BL6 mice ad libitum with 0.2% cuprizone (bis-cyclo-hexanone-oxaldihydrazone; Sigma) mixed with milled chow (Altromin) for 5 weeks. A control group was maintained in the same conditions but fed with the chow without cuprizone. After cuprizone withdrawal, mice were intraperitoneally injected on 3 alternate days with PDE7-GSK3 inhibitors (VP1.15 or VP3.15; 10 mg/kg of animal) using a solution of the compound (100 mg/mL in DMSO) diluted 1:50 in a solution of 5% Tocrisolve (Tocris, UK) in distilledwater[36] or with the vehicle. 1 week after the cuprizone withdrawal, mice were transcardially perfused with 4% PFA in phosphate buffer. Another group was maintained for 3 weeks after cuprizone withdrawal and injected with 3 doses per week on alternate days of the PDE7-GSK3 inhibitors (10 mg/kg of animal per dose see above) or the vehicle and then perfused. The corpus callosum of three animals per condition was studied. For histological examination, forebrain coronal sections (20 μm) were taken of the rostral part of the corpus callosum as previously described[80][81] and stained with eriochrome cyanine using a standard protocol in order to study the myelin. Briefly, cryosections on glass slides were immersed in acetone for 5 minutes, dried and submerged in eriochrome cyanine solution (Sigma) for 1 hour and then differentiated in 5% (w/v) iron alum for 5–10 minutes, followed by a second differentiation with borax-ferricyanide solution for 5 minutes. The stained area was measured with the Image J software and related to the total analyzed area. For the immunofluorescence analysis, tissue sections were stained with anti-MBP (1:200; Serotec; Cat#MCA4095) for myelin, anti-PDGFRα (1:200; Santa Cruz; Cat#sc338) for OPCs, anti-CC1 (1:100; Calbiochem, Cat#OP80) and anti-GFAP (Glial fibrillary acidic protein; 1:200; Dako; Cat#Z0334) for astrocytes, and tomato lectin (TL; 1:67; Sigma; Cat#L0651) for microglia. Optical images were acquired using an Olympus BX61 microscope and fluorescence images were taken using a DFC480 FX digital camera (Leica) coupled to a Leica DM5000 B microscope or a confocal SP5 resonant scanner (Leica). Myelin staining (with MBP and eriochrome cyanine) and CC1 staining were quantified by taking pictures of non-overlapping fields of coronal sections of the corpus callosum, between the lateral ventricles (2 fields per section, 5–6 sections of each mice; using a x20 objective) and by measuring the fluorescence intensity or blue staining using the Image J software. The number of OPCs per field was also counted in pictures of the midline of the corpus callosum using the x40 objective (4–6 sections per mice). Astrocytes and microglia were evaluated in pictures of the same area of the corpus callosum using the x40 objective and quantified by measuring the area occupied by GFAP or TL staining respectively using the Image J software (4–6 sections per mice). Data were expressed as the mean ± SEM.

“Also recorded” adds a separate entry of the source.

In the case of `c1ccc(-c2n/c(=N/CCN3CCOCC3)sn2-c2ccccc2)cc1` [VP3.15], in the assay on adult human OPCs (adult human OPCs, 1 μM, 5 DIV), the “number of CNPase+-Olig2+ cells vs control (differentiation)” value is “significantly increased”. Moreover, the “number of primary cytoplasmic processes” value with adult human OPCs (adult human oligodendrocytes, control 2.9 ± 0.21, p = 0.72) came out at 2.75 ± 0.20. Moreover, the “number of cytoplasmic subprocesses” value in the assay with adult human OPCs (adult human oligodendrocytes, control 4.3 ± 0.2, p = 0.83) came out at 4.8 ± 0.43. The “myelin staining (eriochrome cyanine) in corpus callosum vs vehicle” value in assay [1] (10 mg/kg i.p. on 3 alternate days, 1 week after cuprizone withdrawal) was “significantly higher myelin staining; also recorded: almost complete remyelination”. For the same molecule, in assay [1] (10 mg/kg i.p., after cuprizone withdrawal), the “myelin quantification by MBP immunodetection” value was “confirmed these results, with similar effects”. Besides, the “microglial activation (TL staining) vs vehicle” value in assay [1] (1 week after cuprizone withdrawal) is recorded as “Neither VP1.15 nor VP3.15 induced changes”. Besides, the “number of OPCs (PDGFRα+ cells) vs vehicle” value in assay [1] (one week after cuprizone withdrawal) is “significantly lower number of OPCs”.
